The supplement of paper PMC11424490

Key:
NCI-H2122 = experiment: combination cScore with sotorasib (Bliss gap around IC50) (%PoC); higher = stronger additive effect
How it was run: (§1)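 Scores represent the average Bliss-independence gap, expected minus measured viability, in a field surrounding both monotherapy IC50s, with the top concentrations used when no IC50 was reached. Cells (NCI-H2122, NCI-H358, SW837) were seeded at 500 or 800 per well in 384-well plates, dosed in matrices at 24 h and grown for 72 h, with SW837 grown for 144 h. Viability was measured by CellTiter-Glo, normalised to vehicle wells and fitted with four-parameter curves.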

SW837 = experiment: as above
How it was run: as §1

| Structure (SMILES) | combination cScore with sotorasib (NCI-H2122) | combination cScore with sotorasib (SW837) |
| --- | --- | --- |
| CO[C@@]12[C@H](COC(N)=O)C3=C(C(=O)C(C)=C(N)C3=O)N1C[C@@H]1N[C@@H]12 [Mitomycin C] + C=CC(=O)N1CCN(c2nc(=O)n(-c3c(C)ccnc3C(C)C)c3nc(-c4c(O)cccc4F)c(F)cc23)[C@@H](C)C1 [sotorasib] | 11 | 4.84 |
| CNC(=O)c1ccc(N2C(=S)N(c3ccc(C#N)c(C(F)(F)F)c3)C(=O)C2(C)C)cc1F [Enzalutamide] + C=CC(=O)N1CCN(c2nc(=O)n(-c3c(C)ccnc3C(C)C)c3nc(-c4c(O)cccc4F)c(F)cc23)[C@@H](C)C1 [sotorasib] | 6.62 | 5.64 |
| CC(C)(C(=O)NCC(F)(F)C(F)(F)F)C(=O)N[C@@H]1C(=O)Nc2ccccc2-c2ccccc21 + C=CC(=O)N1CCN(c2nc(=O)n(-c3c(C)ccnc3C(C)C)c3nc(-c4c(O)cccc4F)c(F)cc23)[C@@H](C)C1 [sotorasib] | 2.56 | 21.5 |
| CC(=O)O[C@@]12CO[C@@H]1C[C@H](O)[C@@]1(C)C(=O)[C@H](O)C3=C(C)[C@@H](OC(=O)[C@H](O)[C@@H](NC(=O)OC(C)(C)C)c4ccccc4)C[C@@](O)([C@@H](OC(=O)c4ccccc4)[C@H]21)C3(C)C [Docetaxel] + C=CC(=O)N1CCN(c2nc(=O)n(-c3c(C)ccnc3C(C)C)c3nc(-c4c(O)cccc4F)c(F)cc23)[C@@H](C)C1 [sotorasib] | 1.66 | 3.98 |
| O=c1cc(N2CCOCC2)oc2c(-c3cccc4c3sc3ccccc34)cccc12 [NU-7441] + C=CC(=O)N1CCN(c2nc(=O)n(-c3c(C)ccnc3C(C)C)c3nc(-c4c(O)cccc4F)c(F)cc23)[C@@H](C)C1 [sotorasib] | 15 | 9.27 |
| CC(C)Nc1cc(-c2c[nH]c(C(=O)N[C@H](CO)c3cccc(Cl)c3)c2)c(Cl)cn1 [Ulixertinib] + C=CC(=O)N1CCN(c2nc(=O)n(-c3c(C)ccnc3C(C)C)c3nc(-c4c(O)cccc4F)c(F)cc23)[C@@H](C)C1 [sotorasib] | -4.67 | 3.35 |
| CN(C)CCCC(=O)Nc1n[nH]c2nnc(-c3ccccc3)cc12 + C=CC(=O)N1CCN(c2nc(=O)n(-c3c(C)ccnc3C(C)C)c3nc(-c4c(O)cccc4F)c(F)cc23)[C@@H](C)C1 [sotorasib] | -11.8 | -4.53 |
| C[C@H](CS)C(=O)N1CCC[C@H]1C(=O)O [Captopril] + C=CC(=O)N1CCN(c2nc(=O)n(-c3c(C)ccnc3C(C)C)c3nc(-c4c(O)cccc4F)c(F)cc23)[C@@H](C)C1 [sotorasib] | 1.43 | -0.1 |
| N.N.[Cl][Pt][Cl] [Cisplatin] + C=CC(=O)N1CCN(c2nc(=O)n(-c3c(C)ccnc3C(C)C)c3nc(-c4c(O)cccc4F)c(F)cc23)[C@@H](C)C1 [sotorasib] | 4.22 | -10.2 |
| CC(O)(CS(=O)(=O)c1ccc(F)cc1)C(=O)Nc1ccc(C#N)c(C(F)(F)F)c1 (stereo unspecified) [Bicalutamide] + C=CC(=O)N1CCN(c2nc(=O)n(-c3c(C)ccnc3C(C)C)c3nc(-c4c(O)cccc4F)c(F)cc23)[C@@H](C)C1 [sotorasib] | 3.68 | -1.56 |
| COc1cc2cc(c1Cl)N(C)C(=O)C[C@H](OC(=O)C(C)C)[C@]1(C)O[C@@H]1[C@H](C)[C@@H]1C[C@@](O)(NC(=O)O1)[C@H](OC)/C=C/C=C(\C)C2 [Ansamitocin P3] + C=CC(=O)N1CCN(c2nc(=O)n(-c3c(C)ccnc3C(C)C)c3nc(-c4c(O)cccc4F)c(F)cc23)[C@@H](C)C1 [sotorasib] | 5.88 | -0.32 |
| NC(=O)c1ccc(-c2nc(-c3ccccn3)c(-c3ccc4c(c3)OCO4)[nH]2)cc1 + C=CC(=O)N1CCN(c2nc(=O)n(-c3c(C)ccnc3C(C)C)c3nc(-c4c(O)cccc4F)c(F)cc23)[C@@H](C)C1 [sotorasib] | 3.33 | 4.91 |
| O=C(c1ccc(F)c(F)c1Nc1ccc(I)cc1F)N1CC(O)([C@@H]2CCCCN2)C1 [Cobimetinib] + C=CC(=O)N1CCN(c2nc(=O)n(-c3c(C)ccnc3C(C)C)c3nc(-c4c(O)cccc4F)c(F)cc23)[C@@H](C)C1 [sotorasib] | 5.25 | 11.3 |
| CC1(C)CCC(CN2CCN(c3ccc(C(=O)NS(=O)(=O)c4ccc(NCC5CCOCC5)c([N+](=O)[O-])c4)c(Oc4cnc5[nH]ccc5c4)c3)CC2)=C(c2ccc(Cl)cc2)C1 [ABT-199] + C=CC(=O)N1CCN(c2nc(=O)n(-c3c(C)ccnc3C(C)C)c3nc(-c4c(O)cccc4F)c(F)cc23)[C@@H](C)C1 [sotorasib] | 11.2 | -2.18 |
| CC(C)(C)c1nc(-c2cccc(NS(=O)(=O)c3c(F)cccc3F)c2F)c(-c2ccnc(N)n2)s1 [Dabrafenib] + C=CC(=O)N1CCN(c2nc(=O)n(-c3c(C)ccnc3C(C)C)c3nc(-c4c(O)cccc4F)c(F)cc23)[C@@H](C)C1 [sotorasib] | 13.3 | -2.81 |
| COc1cc2c(Oc3ccc4[nH]c(C)cc4c3F)ncnc2cc1OCCCN1CCCC1 [Cediranib] + C=CC(=O)N1CCN(c2nc(=O)n(-c3c(C)ccnc3C(C)C)c3nc(-c4c(O)cccc4F)c(F)cc23)[C@@H](C)C1 [sotorasib] | 0.01 | 1.55 |
| Nc1nc(Nc2ccc3c(c2)CC[C@@H](N2CCCC2)CC3)nn1-c1cc2c(nn1)-c1ccccc1CCC2 [Bemcentinib] + C=CC(=O)N1CCN(c2nc(=O)n(-c3c(C)ccnc3C(C)C)c3nc(-c4c(O)cccc4F)c(F)cc23)[C@@H](C)C1 [sotorasib] | -5 | 4.27 |
| COc1cc(OC)c(/C=C/S(=O)(=O)Cc2ccc(OC)c(NCC(=O)O)c2)c(OC)c1 [Rigosertib] + C=CC(=O)N1CCN(c2nc(=O)n(-c3c(C)ccnc3C(C)C)c3nc(-c4c(O)cccc4F)c(F)cc23)[C@@H](C)C1 [sotorasib] | 2.41 | 13.3 |
| Cc1ccc(Nc2nccc(N(C)c3ccc4c(C)n(C)nc4c3)n2)cc1S(N)(=O)=O [Pazopanib] + C=CC(=O)N1CCN(c2nc(=O)n(-c3c(C)ccnc3C(C)C)c3nc(-c4c(O)cccc4F)c(F)cc23)[C@@H](C)C1 [sotorasib] | 9.15 | 2.58 |
| CO[C@H]1C[C@@H]2CC[C@@H](C)[C@@](O)(O2)C(=O)C(=O)N2CCCC[C@H]2C(=O)O[C@H]([C@H](C)C[C@@H]2CC[C@@H](OCCO)[C@H](OC)C2)CC(=O)[C@H](C)/C=C(\C)[C@@H](O)[C@@H](OC)C(=O)[C@H](C)C[C@H](C)/C=C/C=C/C=C/1C [Everolimus] + C=CC(=O)N1CCN(c2nc(=O)n(-c3c(C)ccnc3C(C)C)c3nc(-c4c(O)cccc4F)c(F)cc23)[C@@H](C)C1 [sotorasib] | 4.54 | -4.84 |
| CNCc1ccc(-c2cc(-c3nc(-c4ccc(S(=O)(=O)C(C)C)cc4)cnc3N)on2)cc1 [VE-822/VX-970] + C=CC(=O)N1CCN(c2nc(=O)n(-c3c(C)ccnc3C(C)C)c3nc(-c4c(O)cccc4F)c(F)cc23)[C@@H](C)C1 [sotorasib] | 2.89 | -0.45 |
| CCc1cccc(CC)c1NC(=O)c1nn(C)c2c1CCc1cnc(Nc3ccc(C(=O)NC4CCN(C)CC4)cc3OC(F)(F)F)nc1-2 [NMS-P715] + C=CC(=O)N1CCN(c2nc(=O)n(-c3c(C)ccnc3C(C)C)c3nc(-c4c(O)cccc4F)c(F)cc23)[C@@H](C)C1 [sotorasib] | 2.28 | 13.2 |
| CN1CC[C@H](c2c(O)cc(O)c3c(=O)cc(-c4ccccc4Cl)oc23)[C@H](O)C1 [Flavopiridol] + C=CC(=O)N1CCN(c2nc(=O)n(-c3c(C)ccnc3C(C)C)c3nc(-c4c(O)cccc4F)c(F)cc23)[C@@H](C)C1 [sotorasib] | 6.54 | 1.46 |
| Nc1nc(Cl)nc2c1ncn2[C@@H]1O[C@H](CO)[C@@H](O)[C@@H]1F [Clofarabine] + C=CC(=O)N1CCN(c2nc(=O)n(-c3c(C)ccnc3C(C)C)c3nc(-c4c(O)cccc4F)c(F)cc23)[C@@H](C)C1 [sotorasib] | 1 | 3.33 |
| CC(C)NC[C@@H](C(=O)N1CCN(c2ncnc3c2[C@H](C)C[C@H]3O)CC1)c1ccc(Cl)cc1 [Ipatasertib] + C=CC(=O)N1CCN(c2nc(=O)n(-c3c(C)ccnc3C(C)C)c3nc(-c4c(O)cccc4F)c(F)cc23)[C@@H](C)C1 [sotorasib] | 12.3 | 11.4 |
| CN1CCN(c2ccc(-c3cccc(CN4CCOCC4)c3)cc2NC(=O)c2c[nH]c(=O)cc2C(F)(F)F)CC1 [OICR-9429] + C=CC(=O)N1CCN(c2nc(=O)n(-c3c(C)ccnc3C(C)C)c3nc(-c4c(O)cccc4F)c(F)cc23)[C@@H](C)C1 [sotorasib] | 9.62 | 3.36 |
| CCCCCOC(=O)Nc1nc(=O)n([C@@H]2O[C@H](C)[C@@H](O)[C@H]2O)cc1F [Capecitabin] + C=CC(=O)N1CCN(c2nc(=O)n(-c3c(C)ccnc3C(C)C)c3nc(-c4c(O)cccc4F)c(F)cc23)[C@@H](C)C1 [sotorasib] | 4.4 | 1.19 |
| Nc1ncn([C@H]2C[C@H](O)[C@@H](CO)O2)c(=O)n1 [Decitabine] + C=CC(=O)N1CCN(c2nc(=O)n(-c3c(C)ccnc3C(C)C)c3nc(-c4c(O)cccc4F)c(F)cc23)[C@@H](C)C1 [sotorasib] | 1 | 0.84 |
